Reference: patent publication US20220251036A1, “DIFLUOROHALOALLYLAMINE SULFONE DERIVATIVE INHIBITORS OF LYSYL OXIDASES, METHODS OF PREPARATION, AND USES THEREOF” (PHARMAXIS LTD., priority 2019, published 2022)

Assay: Skin permeability, Franz diffusion cell system
Format: in vitro ADME, human
Details: topical formulation containing 3% compound; for Concentration of Compound 1 in the receptor chamber: human skin
Text: Skin permeability is essential when considering topical application to treat skin conditions. One way to evaluate skin permeability is to use a Franz diffusion cell system with human skin as a membrane (Particle Sciences; Technical Brief 2009; Vol. 10). The donor compound, topically formulated, is applied on the top chamber and diffusion through the skin is monitored at relevant time points by sampling the solution in the receptor chamber via the sampling port. The concentration of Compound 1 was determined by quantitative HPLC analysis.

SMILES: NC/C=C(\F)C(F)(F)S(=O)(=O)c1ccccc1 [Compound 1, (Z)-3,4,4-trifluoro-4-(phenylsulfonyl)but-2-en-1-amine]
- Concentration of Compound 1 in the receptor chamber (0 hr): 0 nM
- Concentration of Compound 1 in the receptor chamber (2 hr): 17 nM
- Concentration of Compound 1 in the receptor chamber (4 hr): 42 nM
- Concentration of Compound 1 in the receptor chamber (6 hr): 166 nM
- Concentration of Compound 1 in the receptor chamber (20 hr): 1742 nM
- permeability and diffusion across the membrane (in words) (time dependent): good permeability and diffusion
